Molecules are shown by their SMILES. Several values for one entry are separate records, joined by “and”; a condition that tells them apart may be missing. Equal entries are not always repeated. Entries after “also recorded” stand apart in the source; their conditions may differ. Marks after values point to notes of the source that are not given here.

The values that follow come from patent US20250339434A1, “TREATING NEUROLOGIC DISEASES” (priority 2024, published 2025).

The subject of series [1] is sFBP positive human subjects (patients) with ASD. Kind of series: Social Responsiveness Scale (SRS) scores before and after leucovorin in sFBP positive patients. The series is classed as in vivo. The method, then:
Turning now to FIGS. 2A-F, six figures indicate results of treatments when using the process (100) of FIG. 1. In sFBP positive human subjects (patients) started on the standard dose of leucovorin (25 mg twice a day) but in 6 of 12 (50%), the dose of leucovorin was increased to 50 mg twice a day in order to obtain an effective response as judged by the ongoing clinical evaluation. The number of days treated with leucovorin ranged from 92 to 1022 days with an average (SD) number of 584 (333) days of treatment. The graphs of FIGS. 2A-F illustrate the patients' responses using a Social Responsiveness Scale (SRS, which is known in the field, so will not be explained in detail herein). The difference in SRS scores was compared before and after the start of leucovorin treatment. The Total score decreased by 7.4 (1.4) t-score points with leucovorin treatment [F(1,44.6)=28.03, p<0.001, Cohen's d′=1.4]. The Awareness subscale decreased by 8.0 (1.9) t-score points with leucovorin treatment [F(1,45.9)=18.01, p<0.001, Cohen's d′=1.1]. The Cognition subscale decreased by 8.5 (1.8) t-score points with leucovorin treatment [F(1,45.4)=21.64, p<0.001, Cohen's d′=1.2]. The Communication subscale decreased by 8.9 (1.6) t-score points with leucovorin treatment [F(1,44.6)=31.22, p<0.001, Cohen's d′=1.4]. The Motivation subscale decreased by 6.9 (2.1) t-score points with leucovorin treatment [F(1,44.8)=10.91, p<0.01, Cohen's d′=0.9]. The Mannerisms subscale decreased by 4.3 (1.9) t-score points with leucovorin treatment [F(1,45.0)=[…], p=0.03, Cohen's d′=0.6]. To determine an estimate of the timing of the effect of leucovorin treatment, linear regression models were used to determine the change in SRS scores with each day of leucovorin treatment, as shown in FIGS. 2A-F. The Total score decreased by 0.01 (0.002) t-score points per day on leucovorin [F(1,46.6)=25.68, p<0.001]. The Awareness subscale decreased by 0.014 (0.003) t-score points per day on leucovorin [F(1,47.2)=19.74, p<0.001]. The Cognition subscale decreased by 0.013 (0.003) t-score points per day on leucovorin [F(1,47.4)=17.49, p<0.001]. The Communication subscale decreased by 0.013 (0.003) t-score points per day on leucovorin [F(1,46.2)=21.48, p<0.001]. The Motivation subscale decreased by 0.01 (0.004) t-score points per day on leucovorin [F(1,46.1)=8.27, p<0.01]. The Mannerisms subscale decreased by 0.008 (0.003) t-score points per day on leucovorin [F(1,46.2)=6.34, p=0.02].

For series [2] the test system is unchanged. Kind of series: Aberrant Behavior Checklist (ABC) scores before and after leucovorin in sFBP positive patients. The class given is in vivo. The source says: FIGS. 3A-F includes six charts that indicate results of treatments when using the process (100) of FIG. 1 using the Aberrant Behavioral Checklist (ABC, which is known in the field, so will not be explained in detail herein). The patients are the same as the patients in FIGS. 2A-F. Note that the scores/scales are different in FIGS. 3A-F, but the patients are the same and measured over the same time period as FIGS. 2A-F. The difference in ABC scores was compared before and after the start of leucovorin treatment. The Total score decreased by 20.2 (5.9) raw points with leucovorin treatment [F(1,44.8)=11.92, p=0.001, Cohen's d′=0.9]. The Irritability subscale decreased by 5.7 (2.1) raw points with leucovorin treatment [F(1,44.8)=7.56, p<0.01, Cohen's d′=0.6]. […] The Stereotypy subscale decreased by 2.2 (1.0) raw points with leucovorin treatment [F(1,46.4)=4.56, p<0.05, Cohen's d′=0.5]. The Hyperactivity subscale decreased by 6.8 (1.6) raw points with leucovorin treatment [F(1,43.8)=18.34, p<0.001, Cohen's d′=1.1]. […] To get an estimate of the timing of the effect of leucovorin treatment, linear regression models were used to determine the change in ABC scores with each day of leucovorin treatment, as shown in FIGS. 3A-F. The Total score decreased by 0.04 (0.01) raw points per day on leucovorin [F(1,46.3)=12.67, p=0.001]. The Irritability subscale decreased by 0.008 (0.004) raw points per day on leucovorin [F(1,46.5)=5.33, p<0.05]. The Social-Withdrawal subscale decreased by 0.01 (0.003) raw points per day on leucovorin [F(1,44.9)=13.85, p<0.001]. The Stereotypy subscale decreased by 0.004 (0.002) raw points per day on leucovorin [F(1,48.1)=6.17, p<0.05]. The Hyperactivity subscale decreased by 0.01 (0.003) raw points per day on leucovorin [F(1,44.6)=20.56, p<0.001].

In series [3] the test system is patients with ASD. Kind of series: SRS scores in patients with ASD tested for FRAAs and sFBPs: effect of leucovorin and concurrent treatments. The series is classed as in vivo, human. Conditions: for Association of concurrent treatment with SRS scores: concurrent treatments. The method, then: (§1) In other tests, many patients with ASD were tested for FRAAs and sFBPs to guide clinical management by identifying the clinical characteristics associated with these biomarkers and to determine whether the biomarkers could predict treatment response.
This is due to two opposing effects. It appears that those with higher binding FRAAs that were not treated with leucovorin had more severe ASD symptoms than those with low binding FRAA titers. In contrast, those with higher FRAA titers who were treated with leucovorin appear to have less severe ASD symptoms than those that were treated and had lower binding FRAA titers. […] Those patients with some of the highest binding FRAA titers can have, on average, a eight-to-sixteen point favorable response on SRS subscales, an amount that can move them into more favorable severity categories.
FIGS. 8A-E are a collection of five charts illustrating results of factoring in a titer of binding autoantibody with the folate treatment when applied to several patients, where the results are shown on a Social Responsiveness Scale.
(§2) The following two tables indicate some treatments and a statistically significant effect of concurrent treatments. β indicates an effectiveness on a certain outcome measure. In Table 2 and 3, a negative value for beta indicates a positive result.

The test system of series [4] is patients with ASD. Kind of series: ABC scores in patients with ASD tested for FRAAs and sFBPs: effect of leucovorin and concurrent treatments. The series is classed as in vivo, human. Conditions: for Effect on ABC Hyperactivity: concurrent treatments. The method, then:
as §1, §2

Series [5] deals with individuals with ASD. Kind of series: Safety and tolerability in individuals with ASD. The series is classed as in vivo, human. The settings on record: vulnerable population (ASD).
The conditions of series [6]: cited from earlier work.
In series [7] the test system is individuals with ASD. Conditions: cited from earlier work.
Setting [8] is: effect size, before vs after leucovorin.
[9] abbreviates: sFBP positive patients, before vs after start of leucovorin.
Setting [10] is: effect of concurrent treatment, negative beta = positive result.

Regarding `Nc1nc2c(c(=O)[nH]1)N(C=O)C(CNc1ccc(C(=O)N[C@@H](CCC(=O)O)C(=O)O)cc1)CN2` (mixture of isomers) [leucovorin, folinic acid], in series [1] (setting [8]), the “Cohen's d′, SRS Awareness subscale” value amounted to 1.1; the “Cohen's d′, SRS Cognition subscale” value was 1.2; the “Cohen's d′, SRS Communication subscale” value was found to be 1.4; the “Cohen's d′, SRS Mannerisms subscale” value is reported as 0.6. Besides, in series [1] (setting [8]), the “Cohen's d′, SRS Motivation subscale” value stood at 0.9 and the “Cohen's d′, SRS Total score” value is on record as 1.4. For the same compound, the “Duration of treatment necessary for the 7-point improvement in the SRS” value in series [1] (individuals positive for sFBPs) is reported as “two years”. Further, in series [1] (linear regression model), the “SRS Awareness subscale decrease per day on leucovorin” value is 0.014 (0.003) t-score points per day, the “SRS Cognition subscale decrease per day on leucovorin” value is on record as 0.013 (0.003) t-score points per day, the “SRS Communication subscale decrease per day on leucovorin” value is recorded as 0.013 (0.003) t-score points per day and the “SRS Mannerisms subscale decrease per day on leucovorin” value is 0.008 (0.003) t-score points per day. In series [1] (linear regression model), the “SRS Motivation subscale decrease per day on leucovorin” value is reported as 0.01 (0.004) t-score points per day and the “SRS Total score decrease per day on leucovorin” value was 0.01 (0.002) t-score points per day. Moreover, in series [1] (sFBP positive patients), the “SRS score decrease with leucovorin (summary)” value is recorded as “about 7 points”. Also, the “SRS Total score decrease with leucovorin treatment” value in series [1] (sFBP positive patients (12), before vs after start of leucovorin 25 or 50 mg twice a day, 92 to 1022 days, value (spread)) was 7.4 (1.4) t-score points. Further, in series [1] (setting [9]), the “SRS Awareness subscale decrease with leucovorin treatment” value is 8.0 (1.9) t-score points, the “SRS Cognition subscale decrease with leucovorin treatment” value is listed as 8.5 (1.8) t-score points, the “SRS Communication subscale decrease with leucovorin treatment” value is 8.9 (1.6) t-score points and the “SRS Mannerisms subscale decrease with leucovorin treatment” value is reported as 4.3 (1.9) t-score points. In series [1] (setting [9]), the “SRS Motivation subscale decrease with leucovorin treatment” value is reported as 6.9 (2.1) t-score points. Further, in series [2] (setting [8]), the “Cohen's d′, ABC Hyperactivity subscale” value turned out to be 1.1; the “Cohen's d′, ABC Irritability subscale” value is listed as 0.6; the “Cohen's d′, ABC Social Withdrawal subscale” value turned out to be 0.9; the “Cohen's d′, ABC Stereotypy subscale” value amounted to 0.5. Further, the “Cohen's d′, ABC Total score” value in series [2] (setting [8]) was 0.9. For the same compound, the “Duration of treatment required for the 5.7 improvement in irritability on the ABC” value in series [2] (individuals positive for sFBPs) was “two years”. For the same compound, in series [2] (linear regression model), the “ABC Hyperactivity subscale decrease per day on leucovorin” value is reported as 0.01 (0.003) raw points per day, the “ABC Inappropriate Speech subscale change per day on leucovorin” value was “did not change significantly”, the “ABC Irritability subscale decrease per day on leucovorin” value is 0.008 (0.004) raw points per day and the “ABC Social-Withdrawal subscale decrease per day on leucovorin” value is given as 0.01 (0.003) raw points per day. Besides, in series [2] (linear regression model), the “ABC Stereotypy subscale decrease per day on leucovorin” value is recorded as 0.004 (0.002) raw points per day and the “ABC Total score decrease per day on leucovorin” value is listed as 0.04 (0.01) raw points per day. In addition, in series [2] (setting [9]), the “ABC Hyperactivity subscale decrease with leucovorin treatment” value is given as 6.8 (1.6) raw points; the “ABC Inappropriate Speech subscale change with leucovorin treatment” value is “did not change significantly”; the “ABC Irritability subscale decrease with leucovorin treatment” value is 5.7 (2.1) raw points and 5.7 raw points; the ABC Social Withdrawal subscale decrease with leucovorin treatment worked out at 5.8 raw points. Further, in series [2] (setting [9]), the “ABC Stereotypy subscale decrease with leucovorin treatment” value was 2.2 (1.0) raw points and the “ABC Total score decrease with leucovorin treatment” value was 20.2 (5.9) raw points. The “SRS t-scores / ASD symptoms as binding FRAA titers increase, with leucovorin treatment” value with patients with ASD [3] (dependence on binding FRAA titer) is on record as “less severe ASD symptoms when treated with leucovorin; also recorded: better (lower scores)”. Moreover, the “Favorable response on SRS subscales in patients with some of the highest binding FRAA titers” value in the series on patients with ASD [3] (on average, highest binding FRAA titers) is on record as “eight-to-sixteen”. In the series on patients with ASD [3] (patients with ASD), the “Effect on core ASD symptoms” value is given as “improves core ASD symptoms”. For the same compound, the “Effect on ABC Irritability” value with patients with ASD [4] was “only improved Irritability; also recorded: overall improving irritability”. Further, in the series with individuals with ASD [5], the Safety and tolerability entry is “extremely safe and well-tolerated”. Moreover, the “Absorption following oral administration” value in series [6] is on record as “rapidly absorbed”.
With `C[N+](C)(C)CC(O)CC(=O)[O-]` (centres unmarked) [Carnitine], the “β, SRS Motivation” value in the series on patients with ASD [3] (setting [10]) is listed as −2.3 (1.0)*. Also, the “Effect on ABC Hyperactivity” value is on record as “improve ABC Hyperactivity” in the series on patients with ASD [4] and “better score on ABC Hyperactivity” in the series with patients with ASD [4] (listed as carnitine). For the same compound, the “Effect on core ASD symptoms in two DBPC studies” value in the series with individuals with ASD [7] is reported as “improve core ASD symptoms”.
For `C/C1=C2/[N-][C@H]([C@H](CC(N)=O)[C@@]2(C)CCC(=O)NC[C@@H](C)OP(=O)([O-])O[C@H]2[C@@H](O)[C@@H](n3cnc4cc(C)c(C)cc43)O[C@@H]2CO)[C@]2(C)N=C(/C(C)=C3N=C(/C=C4N=C1[C@@H](CCC(N)=O)C\4(C)C)[C@@H](CCC(N)=O)[C@]\3(C)CC(N)=O)[C@@H](CCC(N)=O)[C@]2(C)CC(N)=O.[CH3-].[Co+3]` [mB12 SQ, Methyl-cobalamin], the “β, SRS Cognition” value in the series on patients with ASD [3] (setting [10]) is given as −4.3 (1.3)***. Moreover, the “β, SRS Motivation” value in the series with patients with ASD [3] (setting [10]) was −3.2 (1.3)*. Moreover, the “β, SRS Total” value in the series on patients with ASD [3] (effect of concurrent treatment, negative beta = positive result, value (spread)) was −2.8 (1.1)**. In addition, the “Association of concurrent treatment with SRS scores” value with patients with ASD [3] (patients with ASD) was “improve the SRS Total score, as well as all subscales except SRS Awareness”; with patients with ASD [3] (patients with ASD, listed as mB12 Subcutaneous), “better SRS scores on a few subscales”.
